Assay results from US9452194B2, “Methods for treating HCV” (AbbVie Inc., priority 2011, dated 2016).

Legend:
1a-H77 replicons = assay: Predominant resistant variants selected in replicons, fold resistance; type: cell-based, Hepatitis C virus
Experimental: (§1) Predominant resistant variants selected by Compound 1, 2, or 4 in genotype 1 replicons were also determined.

1b-Con1 replicons = assay: as above; type: cell-based, Hepatitis C virus
Experimental: as §1

[1] = Bioavailability of solid formulation of Compound 2 with increased binder; type: in vivo; conditions: 250 mg in the improved formulation versus 400 mg in the original formulation

Cc1cnc(C(=O)N[C@H]2CCCCC/C=C\[C@@H]3C[C@@]3(C(=O)NS(=O)(=O)C3CC3)NC(=O)[C@@H]3C[C@@H](Oc4nc5ccccc5c5ccccc45)CN3C2=O)cn1 [Compound 1, (2R,6S,13aS,14aR,16aS,Z)-N-(cyclopropylsulfonyl)-6-(5-methylpyrazine-2-carboxamido)-5,16-dioxo-2-(phenanthridin-6-yloxy)-1,2,3,5,6,7,8,9,10,11,13a,14,14a,15,16,16a-hexadecahydrocyclopropa[e]pyrrolo[1,2-a][1,4]diazacyclopentadecine-14a-carboxamide]
fold resistance (1a-H77 replicons; variant D168A): 48 fold | fold resistance (1a-H77 replicons; variant R155K): 26 fold | fold resistance (1b-Con1 replicons; variant A156T): 9 fold | fold resistance (1b-Con1 replicons; variant D168V): 190 fold | fold resistance (1b-Con1 replicons; variant R155K): 48 fold

COc1c(-c2ccc3cc(NS(C)(=O)=O)ccc3c2)cc(-n2ccc(=O)[nH]c2=O)cc1C(C)(C)C [Compound 2, N-(6-(3-tert-butyl-5-(2,4-dioxo-3,4-dihydropyrimidin-1(2H)-yl)-2-methoxyphenyl)naphthalen-2-yl)methanesulfonamide]
fold resistance (1a-H77 replicons; variant C316Y): 1600 fold | fold resistance (1a-H77 replicons; variant M414T): 36 fold | fold resistance (1a-H77 replicons; variant S556G): 15 fold | fold resistance (1a-H77 replicons; variant Y448C): 980 fold | fold resistance (1b-Con1 replicons; variant C316Y): 1400 fold | fold resistance (1b-Con1 replicons; variant D559G): 100 fold | fold resistance (1b-Con1 replicons; variant M414T): 26 fold | bioequivalence of improved solid formulation (increased amount of binder, e.g. copovidone) [1]: bioequivalent

COC(=O)N[C@H](C(=O)N1CCC[C@H]1C(=O)Nc1ccc([C@@H]2CC[C@@H](c3ccc(NC(=O)[C@@H]4CCCN4C(=O)[C@@H](NC(=O)OC)C(C)C)cc3)N2c2ccc(C(C)(C)C)cc2)cc1)C(C)C [Compound 4]
fold resistance (1a-H77 replicons; variant M28T): 9000 fold | fold resistance (1a-H77 replicons; variant M28V): 60 fold | fold resistance (1a-H77 replicons; variant Q30R): 800 fold | fold resistance (1a-H77 replicons; variant Y93C): 1700 fold | fold resistance (1a-H77 replicons; variant Y93H): 41000 fold | fold resistance (1b-Con1 replicons; variant Y93H): 55 fold
